According to article PMC5053573, “Structure-Based Design of Tetrahydroisoquinoline-7-carboxamides as Selective Discoidin Domain Receptor 1 (DDR1) Inhibitors” (Journal of Medicinal Chemistry, 2016):

How the values were obtained:
Experiment in all cases: biochemical
Conditions in all cases: read-out: %Ctrl @ 1000nM
TIE2 = target: T1, TIE2 (Homo sapiens, UniProt Q02763)
T1 construct: gene TEK

ALK = ALK (Homo sapiens, UniProt Q9UM73)
ALK(L1196M) = ALK(L1196M) (Homo sapiens, UniProt Q9UM73, L1196M)
MAP3K1 = MAP3K1 (Homo sapiens, UniProt Q13233)
NLK = NLK (Homo sapiens, UniProt Q9UBE8)
STK35 = STK35 (Homo sapiens, UniProt Q8TDR2)
PIK4CB = target: T2, PIK4CB (Homo sapiens, UniProt Q9UBF8)
T2 construct: gene PI4KB

MUSK = MUSK (Homo sapiens, UniProt O15146)
GSK3B = GSK3B (Homo sapiens, UniProt P49841)
EPHA6 = EPHA6 (Homo sapiens, UniProt Q9UF33)
[1] = target: T3, RSK4(Kin.Dom.1-N-terminal) (Homo sapiens, UniProt Q9UK32)
T3 construct: gene RPS6KA6

PHKG1 = PHKG1 (Homo sapiens, UniProt Q16816)
FLT3(D835V) = FLT3(D835V) (Homo sapiens, UniProt P36888, D835V)
SRPK1 = SRPK1 (Homo sapiens, UniProt Q96SB4)
ACVR2A = ACVR2A (Homo sapiens, UniProt P27037)
PIK3CB = PIK3CB (Homo sapiens, UniProt P42338)
ARK5 = target: T4, ARK5 (Homo sapiens, UniProt O60285)
T4 construct: gene NUAK1

NEK7 = NEK7 (Homo sapiens, UniProt Q8TDX7)
MEK2 = target: T5, MEK2 (Homo sapiens, UniProt P36507)
T5 construct: gene MAP2K2

MEK5 = target: T6, MEK5 (Homo sapiens, UniProt Q13163)
T6 construct: gene MAP2K5

TIE1 = TIE1 (Homo sapiens, UniProt P35590)
NEK5 = NEK5 (Homo sapiens, UniProt Q6P3R8)
EGFR(S752-I759del) = EGFR(S752-I759del) (Homo sapiens, UniProt P00533, DEL752-759)
MAP4K2 = MAP4K2 (Homo sapiens, UniProt Q12851)
[2] = target: JAK3(JH1domain-catalytic) (Homo sapiens, UniProt P52333)
TAK1 = target: T7, TAK1 (Homo sapiens, UniProt O43318)
T7 construct: gene MAP3K7

p38-gamma = target: T8, p38-gamma (Homo sapiens, UniProt P53778)
T8 construct: gene MAPK12

[3] = target: ABL1(H396P)-phosphorylated (Homo sapiens, UniProt P00519, H396P)
SNARK = target: T9, SNARK (Homo sapiens, UniProt Q9H093)
T9 construct: gene NUAK2

ERN1 = ERN1 (Homo sapiens, UniProt O75460)
CSF1R = CSF1R (Homo sapiens, UniProt P07333)
TNNI3K = TNNI3K (Homo sapiens, UniProt Q59H18)
MYO3B = MYO3B (Homo sapiens, UniProt Q8WXR4)
PAK6 = PAK6 (Homo sapiens, UniProt Q9NQU5)
PRKR = target: T10, PRKR (Homo sapiens, UniProt P19525)
T10 construct: gene EIF2AK2

Chain of PIK3CB (P42338 whole entry): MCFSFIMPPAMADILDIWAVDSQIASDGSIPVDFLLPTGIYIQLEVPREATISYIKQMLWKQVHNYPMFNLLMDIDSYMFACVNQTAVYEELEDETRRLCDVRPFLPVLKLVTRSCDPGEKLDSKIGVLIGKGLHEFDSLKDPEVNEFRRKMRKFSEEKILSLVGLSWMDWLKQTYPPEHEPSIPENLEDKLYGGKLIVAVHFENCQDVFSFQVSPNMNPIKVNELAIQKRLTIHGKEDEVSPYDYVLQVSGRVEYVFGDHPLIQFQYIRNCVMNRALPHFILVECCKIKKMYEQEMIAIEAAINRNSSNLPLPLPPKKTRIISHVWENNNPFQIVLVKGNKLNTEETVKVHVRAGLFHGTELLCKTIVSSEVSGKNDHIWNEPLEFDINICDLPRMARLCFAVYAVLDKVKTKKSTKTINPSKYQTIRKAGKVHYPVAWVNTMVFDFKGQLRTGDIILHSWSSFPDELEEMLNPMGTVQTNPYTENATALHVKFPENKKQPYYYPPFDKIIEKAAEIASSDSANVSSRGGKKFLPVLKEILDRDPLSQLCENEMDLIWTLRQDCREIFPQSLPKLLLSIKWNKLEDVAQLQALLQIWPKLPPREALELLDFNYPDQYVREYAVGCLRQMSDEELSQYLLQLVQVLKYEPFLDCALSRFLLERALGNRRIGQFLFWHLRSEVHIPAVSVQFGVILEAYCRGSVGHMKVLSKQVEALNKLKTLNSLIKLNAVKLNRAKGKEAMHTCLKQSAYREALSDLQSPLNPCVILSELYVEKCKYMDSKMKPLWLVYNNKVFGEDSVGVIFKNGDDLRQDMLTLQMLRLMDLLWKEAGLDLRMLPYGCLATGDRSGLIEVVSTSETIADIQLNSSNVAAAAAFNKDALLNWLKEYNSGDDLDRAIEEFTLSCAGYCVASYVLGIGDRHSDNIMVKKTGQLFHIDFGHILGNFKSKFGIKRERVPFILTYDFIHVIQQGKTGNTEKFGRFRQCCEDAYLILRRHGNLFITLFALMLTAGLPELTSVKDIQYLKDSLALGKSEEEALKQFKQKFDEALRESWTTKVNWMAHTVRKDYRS
Chain of SRPK1 (Q96SB4 whole entry): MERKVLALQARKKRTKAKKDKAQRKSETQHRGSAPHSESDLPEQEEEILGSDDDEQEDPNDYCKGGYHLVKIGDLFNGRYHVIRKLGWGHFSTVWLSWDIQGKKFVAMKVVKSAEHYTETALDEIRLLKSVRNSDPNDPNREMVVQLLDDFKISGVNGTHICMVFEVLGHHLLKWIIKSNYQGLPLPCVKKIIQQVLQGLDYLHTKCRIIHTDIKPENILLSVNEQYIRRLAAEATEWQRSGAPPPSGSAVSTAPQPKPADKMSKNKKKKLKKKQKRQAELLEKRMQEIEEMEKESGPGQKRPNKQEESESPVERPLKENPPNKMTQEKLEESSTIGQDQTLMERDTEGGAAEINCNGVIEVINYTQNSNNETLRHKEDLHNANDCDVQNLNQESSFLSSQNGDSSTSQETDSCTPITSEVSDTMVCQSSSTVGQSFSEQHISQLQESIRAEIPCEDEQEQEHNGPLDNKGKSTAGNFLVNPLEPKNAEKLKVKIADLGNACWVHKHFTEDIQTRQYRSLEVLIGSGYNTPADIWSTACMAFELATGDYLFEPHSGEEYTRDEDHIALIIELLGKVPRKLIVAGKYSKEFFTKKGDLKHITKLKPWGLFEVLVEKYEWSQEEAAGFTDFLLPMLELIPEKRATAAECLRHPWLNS
Chain of NEK7 (Q8TDX7 whole entry): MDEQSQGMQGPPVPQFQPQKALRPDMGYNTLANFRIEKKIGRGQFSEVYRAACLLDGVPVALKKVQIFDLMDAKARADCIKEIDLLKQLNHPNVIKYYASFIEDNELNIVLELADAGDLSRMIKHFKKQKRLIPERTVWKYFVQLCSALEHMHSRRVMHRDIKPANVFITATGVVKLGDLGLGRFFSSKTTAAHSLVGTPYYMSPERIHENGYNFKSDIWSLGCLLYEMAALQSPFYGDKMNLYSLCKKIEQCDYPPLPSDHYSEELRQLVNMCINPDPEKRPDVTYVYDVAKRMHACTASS
T7 sequence (O43318 whole entry): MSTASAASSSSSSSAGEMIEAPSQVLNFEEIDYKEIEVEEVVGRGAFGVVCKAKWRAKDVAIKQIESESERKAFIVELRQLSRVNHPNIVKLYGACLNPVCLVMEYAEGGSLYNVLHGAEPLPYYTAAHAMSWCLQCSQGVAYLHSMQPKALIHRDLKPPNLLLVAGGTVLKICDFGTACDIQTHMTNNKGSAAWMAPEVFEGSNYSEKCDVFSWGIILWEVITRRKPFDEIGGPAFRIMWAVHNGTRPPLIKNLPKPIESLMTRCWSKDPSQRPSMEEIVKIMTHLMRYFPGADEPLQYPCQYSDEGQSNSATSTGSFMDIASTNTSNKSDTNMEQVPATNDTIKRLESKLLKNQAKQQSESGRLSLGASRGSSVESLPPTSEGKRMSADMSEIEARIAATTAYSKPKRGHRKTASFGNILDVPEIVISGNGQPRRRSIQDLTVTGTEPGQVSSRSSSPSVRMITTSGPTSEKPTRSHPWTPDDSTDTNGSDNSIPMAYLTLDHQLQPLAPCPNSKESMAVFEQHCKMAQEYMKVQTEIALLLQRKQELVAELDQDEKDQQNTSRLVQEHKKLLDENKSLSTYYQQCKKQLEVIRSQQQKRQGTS
T3 sequence (Q9UK32 whole entry): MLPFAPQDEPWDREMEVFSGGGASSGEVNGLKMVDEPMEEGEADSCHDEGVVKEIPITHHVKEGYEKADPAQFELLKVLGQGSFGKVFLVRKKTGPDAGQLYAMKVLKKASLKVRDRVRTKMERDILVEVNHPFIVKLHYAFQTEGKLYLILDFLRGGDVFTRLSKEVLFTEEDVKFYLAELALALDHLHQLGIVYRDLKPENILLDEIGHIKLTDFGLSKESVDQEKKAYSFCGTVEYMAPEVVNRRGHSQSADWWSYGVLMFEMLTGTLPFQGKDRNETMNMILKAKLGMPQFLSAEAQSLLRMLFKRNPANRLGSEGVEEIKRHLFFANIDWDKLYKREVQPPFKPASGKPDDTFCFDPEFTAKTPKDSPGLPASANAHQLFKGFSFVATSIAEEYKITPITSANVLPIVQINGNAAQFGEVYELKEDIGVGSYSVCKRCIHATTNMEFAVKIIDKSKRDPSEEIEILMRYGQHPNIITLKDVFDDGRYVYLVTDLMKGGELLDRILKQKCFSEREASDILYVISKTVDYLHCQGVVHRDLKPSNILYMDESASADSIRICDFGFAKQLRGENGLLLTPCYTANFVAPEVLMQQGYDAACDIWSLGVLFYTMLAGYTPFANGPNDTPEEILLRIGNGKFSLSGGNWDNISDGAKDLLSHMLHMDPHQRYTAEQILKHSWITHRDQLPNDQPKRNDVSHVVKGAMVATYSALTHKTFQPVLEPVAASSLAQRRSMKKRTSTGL
Chain of TIE1 (P35590 whole entry): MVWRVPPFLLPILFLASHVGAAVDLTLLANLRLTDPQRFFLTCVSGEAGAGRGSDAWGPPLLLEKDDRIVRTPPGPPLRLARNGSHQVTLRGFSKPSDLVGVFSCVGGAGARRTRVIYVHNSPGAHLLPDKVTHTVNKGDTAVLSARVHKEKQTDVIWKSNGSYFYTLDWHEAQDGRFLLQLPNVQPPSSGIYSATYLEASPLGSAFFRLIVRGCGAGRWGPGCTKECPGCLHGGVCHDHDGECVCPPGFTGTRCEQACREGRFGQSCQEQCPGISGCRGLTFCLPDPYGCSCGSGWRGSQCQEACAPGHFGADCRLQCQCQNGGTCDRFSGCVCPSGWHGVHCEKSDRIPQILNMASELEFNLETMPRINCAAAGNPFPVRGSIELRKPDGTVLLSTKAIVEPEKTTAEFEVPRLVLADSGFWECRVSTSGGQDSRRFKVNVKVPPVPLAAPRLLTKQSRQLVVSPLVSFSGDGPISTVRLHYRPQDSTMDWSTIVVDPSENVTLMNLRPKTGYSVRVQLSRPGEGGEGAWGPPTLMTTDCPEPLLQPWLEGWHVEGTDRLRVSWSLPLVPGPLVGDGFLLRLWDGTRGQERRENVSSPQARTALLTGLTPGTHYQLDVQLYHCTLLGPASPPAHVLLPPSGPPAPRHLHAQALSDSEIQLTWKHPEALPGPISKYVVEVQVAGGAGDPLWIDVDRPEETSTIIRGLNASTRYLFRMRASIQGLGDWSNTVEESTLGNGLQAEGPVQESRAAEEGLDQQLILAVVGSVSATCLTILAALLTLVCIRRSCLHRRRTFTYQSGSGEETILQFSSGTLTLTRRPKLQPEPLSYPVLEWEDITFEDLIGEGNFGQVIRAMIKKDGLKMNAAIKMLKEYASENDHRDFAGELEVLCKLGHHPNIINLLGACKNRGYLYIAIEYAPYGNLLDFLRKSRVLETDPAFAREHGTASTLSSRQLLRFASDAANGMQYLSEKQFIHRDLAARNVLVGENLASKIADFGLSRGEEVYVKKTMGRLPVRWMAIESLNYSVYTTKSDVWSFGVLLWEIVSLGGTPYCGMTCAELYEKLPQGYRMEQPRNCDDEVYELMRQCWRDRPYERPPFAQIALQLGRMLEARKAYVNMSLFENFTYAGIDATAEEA
Chain of ACVR2A (P27037 whole entry): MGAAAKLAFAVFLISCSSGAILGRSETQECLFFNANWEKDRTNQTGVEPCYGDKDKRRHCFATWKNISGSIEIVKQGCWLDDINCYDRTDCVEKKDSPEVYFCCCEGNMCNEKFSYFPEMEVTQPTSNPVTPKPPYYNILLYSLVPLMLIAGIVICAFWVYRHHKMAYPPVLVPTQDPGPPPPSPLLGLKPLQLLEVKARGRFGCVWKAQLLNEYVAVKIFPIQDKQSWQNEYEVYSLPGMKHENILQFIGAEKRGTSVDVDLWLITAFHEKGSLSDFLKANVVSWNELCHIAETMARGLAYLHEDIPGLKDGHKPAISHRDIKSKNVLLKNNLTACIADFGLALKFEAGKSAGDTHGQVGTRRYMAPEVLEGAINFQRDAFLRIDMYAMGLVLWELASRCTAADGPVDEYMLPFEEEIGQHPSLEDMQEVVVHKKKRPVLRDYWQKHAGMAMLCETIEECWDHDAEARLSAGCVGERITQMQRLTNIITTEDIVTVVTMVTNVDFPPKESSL

remaining activity at 1 µM (TIE2): 64%
remaining activity at 1 µM (ALK): 95%
remaining activity at 1 µM (ALK(L1196M)): 100%
remaining activity at 1 µM (MAP3K1): 95%
remaining activity at 1 µM (NLK): 61%
remaining activity at 1 µM (STK35): 100%
remaining activity at 1 µM (PIK4CB): 95%
remaining activity at 1 µM (MUSK): 31%
remaining activity at 1 µM (GSK3B): 94%
remaining activity at 1 µM (EPHA6): 58%
remaining activity at 1 µM [1]: 100%
remaining activity at 1 µM (PHKG1): 95%
remaining activity at 1 µM (FLT3(D835V)): 48%
remaining activity at 1 µM (SRPK1): 100%
remaining activity at 1 µM (ACVR2A): 98%
remaining activity at 1 µM (PIK3CB): 100%
remaining activity at 1 µM (ARK5): 82%
remaining activity at 1 µM (NEK7): 87%
remaining activity at 1 µM (MEK2): 100%
remaining activity at 1 µM (MEK5): 100%
remaining activity at 1 µM (TIE1): 74%
remaining activity at 1 µM (NEK5): 95%
remaining activity at 1 µM (EGFR(S752-I759del)): 82%
remaining activity at 1 µM (MAP4K2): 93%
remaining activity at 1 µM [2]: 100%
remaining activity at 1 µM (TAK1): 93%
remaining activity at 1 µM (p38-gamma): 79%
remaining activity at 1 µM [3]: 100%
remaining activity at 1 µM (SNARK): 100%
remaining activity at 1 µM (ERN1): 100%
remaining activity at 1 µM (CSF1R): 96%
remaining activity at 1 µM (TNNI3K): 65%
remaining activity at 1 µM (MYO3B): 85%
remaining activity at 1 µM (PAK6): 85%
remaining activity at 1 µM (PRKR): 100%
Compound: Cc1cn(-c2cc(NC(=O)c3ccc4c(c3)CN(c3cncnc3)C[C@@H]4C)cc(C(F)(F)F)c2)cn1 [Compound 6j]
